Source: patent US20220313651A1, “INHIBITORS OF ZIKA VIRUS INFECTION” (priority 2019, published 2022)

Target: T1, ZIKV EDIII protein (Zika virus, UniProt Q32ZE1, D679E/I627V/V603I/V629A)
T1 construct: human Fc (C)
Experiment: SPR binding to ZIKV EDIII protein
Details: 1:1 binding model, read-out: KD (binding affinity) to ZIKV EDIII protein
Protocol: Briefly, ZIKV EDIII protein or NS2B-NS3 protein were immobilized on a sensor chip (CM5) using Amine Coupling Kit. Serially diluted ST087010 was added as analytes, and HBS-EP with 10% DMSO (10 mM HEPES, 150 mM NaCl, 3 mM EDTA, 0.05% Tween-20, 10% DMSO, pH 7.4) was used as running buffer. Biacore BK evaluation software (version 1.1) was applied to analyze the data, and the curve was fitted with a 1:1 binding model.

T1 sequence (Q32ZE1 584-695 V603I/I627V/V629A/D679E): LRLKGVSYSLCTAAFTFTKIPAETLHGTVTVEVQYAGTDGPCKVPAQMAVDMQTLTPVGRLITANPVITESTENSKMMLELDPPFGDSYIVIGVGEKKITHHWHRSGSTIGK

Compound: Cc1cc2c(C(C)C)c(O)c(O)c(/C=N/n3c(=O)[nH][nH]c3=O)c2c(O)c1-c1c(C)cc2c(C(C)C)c(O)c(O)c(/C=N/n3c(=O)[nH][nH]c3=O)c2c1O [ST087010]
- Kd: 4.95 µM
